{"source": "patent US9596849B2", "about": "“Composition containing sorbitan monocaprylate and alcohol” (Clariant International Ltd., priority 2009, dated 2017)", "key": {"Staphylococcus aureus": {"tested_on": "Staphylococcus aureus", "assay": "Minimum inhibitory concentration and synergistic effect (Kull) against Staphylococcus aureus", "format": "cell-based", "settings": "for QA (minimum inhibitory concentration of the pure substance A): pure sorbitan monocaprylate", "description": "(§1) Calculation of the synergistic effect according to the formula Qa/QA+Qb/QB=SE (synergistic effect, according to F. C. Kull et al., Applied Microbiology 1961, 9, 538), where Qa=minimum inhibitory concentration of the compound A in % in the mixture used, QA=minimum inhibitory concentration of the pure substance A, Qb=minimum inhibitory concentration of the compound B in % in the mixture used, and QB=minimum inhibitory concentration of the pure substance B.\n(§2) Evaluation of the synergistic effect: where an SE>1 is obtained, there is an antagonistic effect; if SE=1, then the compounds are neutral in their behavior toward one another, and if SE<1, there is a synergistic effect.\n(§3) Mixtures of sorbitan monocaprylate and phenoxyethanol or benzyl alcohol, in accordance with Examples 1) and 2), were investigated. The results with respect to synergism are set out in Tables A and B. “MIC blend” here is the minimum inhibitory concentration of the respective blend."}, "Aspergillus brasiliensis": {"tested_on": "Aspergillus brasiliensis", "assay": "Minimum inhibitory concentration and synergistic effect (Kull) against Aspergillus brasiliensis", "format": "cell-based", "settings": "for QA (minimum inhibitory concentration of the pure substance A): pure sorbitan monocaprylate", "description": "as §1, §2, §3"}, "[1]": {"settings": "Table A, sorbitan monocaprylate in 50:50 blend with phenoxyethanol"}, "[2]": {"settings": "Table B, sorbitan monocaprylate in 50:50 blend with benzyl alcohol"}}}
{"substance": "sorbitan monocaprylate", "values": [{"measurement": "QA (minimum inhibitory concentration of the pure substance A)", "setting": "Staphylococcus aureus; Table A", "result": 0.25, "unit": "%"}, {"measurement": "Qa (minimum inhibitory concentration of compound A in the mixture used)", "setting": "Staphylococcus aureus; [1]", "result": 0.0315, "unit": "%"}, {"measurement": "QA (minimum inhibitory concentration of the pure substance A)", "setting": "Staphylococcus aureus; Table B", "result": 0.25, "unit": "%"}, {"measurement": "Qa (minimum inhibitory concentration of compound A in the mixture used)", "setting": "Staphylococcus aureus; [2]", "result": 0.016, "unit": "%"}, {"measurement": "QA (minimum inhibitory concentration of the pure substance A)", "setting": "Aspergillus brasiliensis; Table A", "result": 0.016, "unit": "%"}, {"measurement": "Qa (minimum inhibitory concentration of compound A in the mixture used)", "setting": "Aspergillus brasiliensis; [1]", "result": 0.004, "unit": "%"}, {"measurement": "QA (minimum inhibitory concentration of the pure substance A)", "setting": "Aspergillus brasiliensis; Table B", "result": 0.016, "unit": "%"}, {"measurement": "Qa (minimum inhibitory concentration of compound A in the mixture used)", "setting": "Aspergillus brasiliensis; [2]", "result": 0.004, "unit": "%"}]}
